{
  "source": "paper PMC3238500",
  "about": "(Archives of biochemistry and biophysics, 2011)",
  "molecular_target": "pyruvate carboxylase R472S mutant (RePC) (Rhizobium etli, UniProt Q2K340, R472S)",
  "type": "biochemical",
  "data": [
    {"molecule": "CC(=O)SCCNC(=O)CCNC(=O)[C@H](O)C(C)(C)COP(=O)(O)OP(=O)(O)OC[C@H]1O[C@@H](n2cnc3c(N)ncnc32)[C@H](O)[C@@H]1OP(=O)(O)O", "note": "[acetyl CoA]", "values": [
      {"measurement": "Ka (activation constant)", "value": "1.65 ± 0.05", "unit": "mM"}
    ]}
  ]
}
